Experimental data: patent US12281057B2 (VERTEX PHARMACEUTICALS INCORPORATED, priority 2017, dated 2025)

These molecules were tested against truncated form of human NaV 1.8 with full channel activity (Homo sapiens, UniProt Q9Y5Y9) (assay: E-VIPR Assay Method B for detecting and measuring Nav inhibition (HEK cells, membrane potential FRET dyes, electrical stimulation)). Conditions: HEK cells expressing human NaV 1.8, Table 20B, read-out: Nav 1.8 MedChem Optical Assay EVIPR Assay Method B HS IC50.
Assay type: cell-based
Excerpt: [formula] where X is the ratio response of the test compound. […] E-VIPR Assay Method B for Detecting and Measuring Nav Inhibition Properties Sodium ion channels are voltage-dependent proteins that can be activated by inducing membrane voltage changes by applying electric fields. The electrical stimulation instrument and methods of use, referred to as E-VIPR, are described in International Publication No. WO 2002/008748 A3 and C.-J. Huang et al. Characterization of voltage-gated sodium channel blockers by electrical stimulation and fluorescence detection of membrane potential, 24 Nature Biotech. 439-46 (2006), both of which are incorporated by reference in their entirety. The instrument comprises a microtiter plate handler, an optical system for exciting the coumarin dye while simultaneously recording the coumarin and oxonol emissions, a waveform generator, a current- or voltage-controlled amplifier, and parallel electrode pairs that are inserted into assay plate wells. Under integrated computer control, this instrument passes user-programmed electrical stimulus protocols to cells within the wells of the microtiter plate. […] Sigma #F4135), 1% NEAA (Non-Essential Amino Acids, Life Tech #11140), 1% HEPES (Life Tech #15630), 1% Pen-Strep (Penicillin-Streptomycin; […] Cells were expanded in vented cap flasks, with 95% humidity and 5% CO2. Reagents and Stock Solutions: • 100 mg/mL Pluronic F-127 (Sigma #P2443), in dry DMSO • Compound Plates: […] 5% KIR 2.1 Bacmam virus (produced in-house), prepared as described in Section 3.3 of J. A. Fornwald et al., Gene Expression in Mammalian Cells Using BacMam, a Modified Baculovirus System, 1350 Methods in Molecular Biology 95-116 (2016), the entire contents of which are incorporated by reference. • 5 mM DiSBAC6(3) (a voltage sensitive oxonol acceptor) (Aurora #00-100-010) in dry DMSO • 5 mM CC2-DMPE (a membrane-bound coumarin phospholipid FRET donor) (Aurora #00-100-008) in dry DMSO • 89 mM VABSC-1 in H2O. […] The solution was made by adding 10% Pluronic F127 stock equal to combined volumes of CC2-DMPE and DiSBAC6(3). The order of preparation was first mix Pluronic and CC2-DMPE, then add DiSBAC6(3), then while vortexing add Bath1/β-Cyclodextrin. […] Assay Protocol: […] Final DMSO concentration for all wells in the assay was 0.625% (0.75% DMSO was supplemented to the Compound Loading Buffer for a final DMSO concentration of 0.625%). 2) Hexyl Dye Solution was prepared. 3) Cell plates were prepared. On the day of the assay, the media was aspirated, and the cells were washed three times with 80 μL of Bath-1 buffer, maintaining 25 μL residual volume in each well. 4) 25 μL per well of Hexyl Dye Solution was dispensed into the cell plates. The cells were incubated for 20 minutes at room temp or ambient conditions in darkness. 5) 80 μL per well of Compound Loading Buffer was dispensed into compound plates. […] The mixture was incubated for 30 minutes at room temp/ambient conditions. […] A pre-stimulus recording was performed for 0.5 seconds to obtain the un-stimulated intensities baseline. The stimulatory waveform was followed by 0.5 seconds of post-stimulation recording to examine the relaxation to the resting state. Data Analysis: Data were analyzed and reported as normalized ratios of emission intensities measured in the 460 nm and 580 nm channels. The response as a function of time was reported as the ratios obtained using the following formula: [formula] The data were further reduced by calculating the initial (Ri) and final (Rf) ratios. These were the average ratio values during part or all of the pre-stimulation period and during sample points during the stimulation period. The fluorescence ratio (Rf/Ri) was then calculated and reported as a function of time. Control responses were obtained by performing assays in the presence of the positive control, and in the absence of pharmacological agents (DMSO vehicle negative control). Responses to the negative (N) and positive (P) controls were calculated as above. […]

Chain of truncated form of human NaV 1.8 with full channel activity (Q9Y5Y9 126-1722 limits assumed): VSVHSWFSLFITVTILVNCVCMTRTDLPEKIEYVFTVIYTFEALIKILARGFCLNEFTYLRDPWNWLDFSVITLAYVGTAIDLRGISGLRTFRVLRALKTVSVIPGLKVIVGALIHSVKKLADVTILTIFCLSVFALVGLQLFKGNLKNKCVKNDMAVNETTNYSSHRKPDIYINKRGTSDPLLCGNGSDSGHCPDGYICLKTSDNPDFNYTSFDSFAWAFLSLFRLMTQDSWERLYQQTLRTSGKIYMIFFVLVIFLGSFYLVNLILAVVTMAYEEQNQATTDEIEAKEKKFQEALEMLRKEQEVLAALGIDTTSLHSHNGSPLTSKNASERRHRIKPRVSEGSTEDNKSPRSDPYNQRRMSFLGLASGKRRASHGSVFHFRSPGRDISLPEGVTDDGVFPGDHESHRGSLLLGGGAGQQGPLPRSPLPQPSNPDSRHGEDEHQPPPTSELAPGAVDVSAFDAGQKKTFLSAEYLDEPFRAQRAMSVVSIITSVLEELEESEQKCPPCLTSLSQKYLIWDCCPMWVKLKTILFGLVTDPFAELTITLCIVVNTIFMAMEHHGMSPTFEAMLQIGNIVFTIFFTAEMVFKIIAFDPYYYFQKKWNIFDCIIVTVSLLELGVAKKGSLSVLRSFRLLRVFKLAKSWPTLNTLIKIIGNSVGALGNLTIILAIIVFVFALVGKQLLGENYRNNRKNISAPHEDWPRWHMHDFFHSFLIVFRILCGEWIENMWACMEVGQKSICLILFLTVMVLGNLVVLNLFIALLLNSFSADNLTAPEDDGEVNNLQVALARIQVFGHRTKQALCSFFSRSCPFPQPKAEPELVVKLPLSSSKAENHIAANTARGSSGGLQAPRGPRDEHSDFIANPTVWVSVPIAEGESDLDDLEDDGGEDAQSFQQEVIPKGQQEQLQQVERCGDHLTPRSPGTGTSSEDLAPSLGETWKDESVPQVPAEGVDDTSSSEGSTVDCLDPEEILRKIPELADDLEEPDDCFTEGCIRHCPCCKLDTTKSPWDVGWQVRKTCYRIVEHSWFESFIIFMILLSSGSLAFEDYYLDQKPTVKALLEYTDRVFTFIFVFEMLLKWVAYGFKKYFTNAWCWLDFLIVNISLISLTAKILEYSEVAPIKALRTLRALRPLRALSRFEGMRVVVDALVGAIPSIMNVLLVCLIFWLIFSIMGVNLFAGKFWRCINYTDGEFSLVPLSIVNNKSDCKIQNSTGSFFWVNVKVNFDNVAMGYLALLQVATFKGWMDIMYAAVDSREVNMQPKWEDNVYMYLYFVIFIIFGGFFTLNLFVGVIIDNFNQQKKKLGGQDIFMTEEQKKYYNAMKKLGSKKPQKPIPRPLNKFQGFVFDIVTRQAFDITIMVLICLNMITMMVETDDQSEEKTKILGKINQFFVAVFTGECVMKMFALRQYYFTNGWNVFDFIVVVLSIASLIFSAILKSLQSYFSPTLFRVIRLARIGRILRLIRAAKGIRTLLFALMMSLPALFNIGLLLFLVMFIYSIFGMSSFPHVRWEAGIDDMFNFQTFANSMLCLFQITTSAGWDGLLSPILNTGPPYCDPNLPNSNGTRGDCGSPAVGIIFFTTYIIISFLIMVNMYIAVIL

IC50 [nM] | Structure (SMILES)
65 | COc1cc(F)ccc1Oc1cccc(C(F)(F)F)c1C(=O)Nc1cccc(C(N)=O)c1 [Compound 259, N-(3-carbamoylphenyl)-2-(4-fluoro-2-methoxyphenoxy)-6-(trifluoromethyl)benzamide]
7 | Cc1cc(F)ccc1Oc1cc(Cl)c(Cl)cc1C(=O)Nc1cccc(C(N)=O)c1 [Compound 267, N-(3-carbamoylphenyl)-4,5-dichloro-2-(4-fluoro-2-methyl-phenoxy)benzamide]
250 | NC(=O)c1cccc(NC(=O)c2cc(C(F)(F)F)ccc2Oc2ccccc2)c1 [Compound 277, N-(3-carbamoylphenyl)-2-phenoxy-5-(trifluoromethyl)benzamide]
880 | COc1ccc(NC(=O)c2c(Oc3ccc(F)cc3Cl)cccc2C(F)(F)F)cc1C(N)=O [Compound 253, N-(3-carbamoyl-4-methoxyphenyl)-2-(2-chloro-4-fluorophenoxy)-6-(trifluoromethyl)benzamide]
165 | Cc1cccc(Oc2ccc(F)cc2Cl)c1C(=O)Nc1cccc(C(N)=O)c1 [Compound 275, N-(3-carbamoylphenyl)-2-(2-chloro-4-fluoro-phenoxy)-6-methyl-benzamide]
